Source: US5935951A, “1-acyl-4-aliphatylaminopiperidine compounds” (Novartis Finance Corporation, priority 1994, dated 1999)
Where a name gives a salt, the structure may show the parent alone.

Target: T1, 3H-substance P binding to the bovine retina (Bos taurus, UniProt F1MIX5)
T1 construct: from tissue; host or cells: bovine retina
Assay: radioreceptor assay: binding of 3H-substance P to the bovine retina (according to H. Bittiger)
Conditions: in vitro, read-out: in vitro values: inhibition of the binding of 3H-substance P to the bovine retina

T1 sequence (F1MIX5 1-407): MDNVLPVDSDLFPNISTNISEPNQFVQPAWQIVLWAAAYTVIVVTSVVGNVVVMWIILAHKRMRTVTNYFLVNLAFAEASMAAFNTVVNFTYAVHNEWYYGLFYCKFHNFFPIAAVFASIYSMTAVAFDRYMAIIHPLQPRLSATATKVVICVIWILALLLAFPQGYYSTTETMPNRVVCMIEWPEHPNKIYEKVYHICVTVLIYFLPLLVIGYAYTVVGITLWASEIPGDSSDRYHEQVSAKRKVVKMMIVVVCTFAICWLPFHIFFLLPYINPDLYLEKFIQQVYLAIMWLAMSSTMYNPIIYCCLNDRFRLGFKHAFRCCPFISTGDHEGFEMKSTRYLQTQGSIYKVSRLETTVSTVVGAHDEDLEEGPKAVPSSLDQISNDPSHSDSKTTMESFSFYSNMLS

SMILES | IC50 [nM]
O=C(NC1CCCCC1)N[C@H]1CCN(C(=O)c2cc(C(F)(F)F)cc(C(F)(F)F)c2)[C@H](Cc2ccccc2)C1 [Example 45 (f), (2R,4S)-1-[2-benzyl-1-(3,5-bistrifluoromethylbenzoyl)piperidin-4-yl]-3-cyclohexylurea] | 9
NC(=O)CN[C@H]1CCN(C(=O)c2cc(C(F)(F)F)cc(C(F)(F)F)c2)[C@H](Cc2ccccc2)C1 [Example 2, (2R,4S)-2-[2-Benzyl-1-(3,5-bistrifluoromethylbenzoyl)piperidin-4-ylamino]-acetamide hydrochloride] | 10
CN(C)CCCOC(=O)N[C@H]1CCN(C(=O)c2cc(C(F)(F)F)cc(C(F)(F)F)c2)[C@H](Cc2ccccc2)C1 [16 (2nd compound), 3-dimethylaminopropyl (2R,4S)-N-[2-benzyl-1-(3,5-bistrifluoromethylbenzoyl)piperidin-4-yl]carbamate] | 11

Further lines, results first:

IC50 [nM] | SMILES
11 | CCCC(=O)N[C@H]1CCN(C(=O)c2cc(C(F)(F)F)cc(C(F)(F)F)c2)[C@H](Cc2ccc(Cl)cc2)C1 [Example 28, (2R,4S)-N-[1-(3,5-Bistrifluoromethylbenzoyl)-2-(4-chlorobenzyl)piperidin-4-yl]-butyramide]
7.6 | CCNC(=O)N[C@H]1CCN(C(=O)c2cc(C(F)(F)F)cc(C(F)(F)F)c2)[C@H](Cc2ccc(Cl)cc2)C1 [45 (c), (2R,4S)-1-[1-(3,5-bistrifluoromethylbenzoyl)-2-(4-chlorobenzyl)piperdin-4-yl]-3-ethylurea]
